Experimental data reported in article PMC6941124 (International Journal of Molecular Sciences, 2019).
Residue numbers refer to the chain shown, from its start.

Assays:
Type in all cases: biochemical
Settings in all cases: inhibitor at IC50 concentration previously determined for CK1δ WT; DMSO control = 100%; adjusted to WT = 50%; mean ± SD
[1] = molecular target: T1, CK1δ A36V (Homo sapiens, UniProt P48730, A36V); experiment: in vitro kinase assay, CK1δ mutant A36V
T1 sequence (P48730 1-415 A36V): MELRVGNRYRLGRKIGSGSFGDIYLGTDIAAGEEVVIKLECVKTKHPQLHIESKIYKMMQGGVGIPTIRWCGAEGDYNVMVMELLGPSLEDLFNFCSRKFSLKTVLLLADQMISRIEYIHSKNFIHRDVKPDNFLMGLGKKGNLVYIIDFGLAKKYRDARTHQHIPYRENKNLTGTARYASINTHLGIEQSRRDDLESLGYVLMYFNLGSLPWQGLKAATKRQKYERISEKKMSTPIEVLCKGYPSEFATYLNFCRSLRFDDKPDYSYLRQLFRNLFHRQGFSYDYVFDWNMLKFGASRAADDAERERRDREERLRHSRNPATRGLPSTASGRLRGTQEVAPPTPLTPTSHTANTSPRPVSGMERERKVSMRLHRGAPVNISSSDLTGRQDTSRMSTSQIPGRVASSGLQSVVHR
Method: (§1) Overexpression and purification of GST-CK1δ fusion proteins, either wild type or mutant, were performed as described previously.
(§2) Each kinase assay reaction was performed in kinase buffer (25 mM Tris-HCl (pH 7.5), 10 μM ATP, 10 mM MgCl2, 100 μM EDTA) in presence of purified GST-CK1δ kinase as source of enzyme (either wild type or mutant), an assay-specific substrate (α-casein, GST-p53^1−64, or GST-β-catenin^1−181), and radiolabeled ATP (2 μCi [γ-^32P]-ATP). For performing Michaelis–Menten analysis increasing substrate concentrations were used (α-casein: 0.39−25 μM; GST-p53^1−64: 0.09−1.87 μM; GST-β-catenin^1−181: 0.07−1.32 μM). For biological evaluation of small molecule inhibitors (SMIs), each inhibitor compound was either tested at 10 μM concentration for initial screening or by using a dilution series (0.005−10 µM) for determination of IC50 values. DMSO was used as control. Reactions were incubated for 30 min at 30 °C and reactions were stopped using 5x SDS-loading buffer (250 mM Tris-HCl [pH 6.8], 25% (v/v) β-mercaptoethanol (MSH), 50% (v/v) glycerol, 10% (w/v) SDS, 0.5% (w/v) bromphenol blue). Subsequently, samples were separated by SDS-PAGE using 12.5% acrylamide gels, stained with Coomassie, and phosphorylated substrates were visualized on X-ray film. Incorporation of radiolabeled phosphate was quantified by scintillation counting of Coomassie-stained substrate bands. Defined dilutions of the reaction master mix were counted as well in order to convert results obtained as counts per minute (CPM) to units of transferred phosphate in pmol/min. Michaelis–Menten analysis was performed using GraphPad Prism 6 (GraphPad Software, San Diego, CA, USA).

[2] = molecular target: T2, CK1δ R127L (Homo sapiens, UniProt P48730, R127L); experiment: in vitro kinase assay, CK1δ mutant R127L
T2 sequence (P48730 1-415 R127L): T1 sequence (P48730 1-415 A36V) with V36A, R127L
Method: as §1, §2

[3] = molecular target: T3, CK1δ R168H (Homo sapiens, UniProt P48730, R168H); experiment: in vitro kinase assay, CK1δ mutant R168H
T3 sequence (P48730 1-415 R168H): T1 sequence (P48730 1-415 A36V) with V36A, R168H
Method: as §1, §2

[4] = molecular target: T4, CK1δ R299Q (Homo sapiens, UniProt P48730, R299Q); experiment: in vitro kinase assay, CK1δ mutant R299Q
T4 sequence (P48730 1-415 R299Q): T1 sequence (P48730 1-415 A36V) with V36A, R299Q
Method: as §1, §2

[5] = molecular target: T5, CK1δ Q399* (Homo sapiens, UniProt P48730); experiment: in vitro kinase assay, CK1δ mutant Q399*
T5 sequence (P48730 1-398): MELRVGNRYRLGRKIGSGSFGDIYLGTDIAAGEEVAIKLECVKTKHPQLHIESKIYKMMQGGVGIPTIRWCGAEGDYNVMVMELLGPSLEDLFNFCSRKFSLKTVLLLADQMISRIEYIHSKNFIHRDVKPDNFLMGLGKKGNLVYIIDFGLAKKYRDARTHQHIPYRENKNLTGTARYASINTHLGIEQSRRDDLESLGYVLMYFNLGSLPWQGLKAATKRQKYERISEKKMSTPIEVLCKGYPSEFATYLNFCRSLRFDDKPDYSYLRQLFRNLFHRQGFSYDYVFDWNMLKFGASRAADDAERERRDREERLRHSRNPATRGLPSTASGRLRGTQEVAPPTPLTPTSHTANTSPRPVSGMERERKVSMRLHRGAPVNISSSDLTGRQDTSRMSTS
Method: as §1, §2

| SMILES | Residual activity of CK1δ A36V [1] [%] | Residual activity of CK1δ R127L [2] [%] | Residual activity of CK1δ R168H [3] [%] | Residual activity of CK1δ R299Q [4] [%] | Residual activity of CK1δ Q399* [5] [%] |
| --- | --- | --- | --- | --- | --- |
| O=C(Nc1nc2ccc(C(F)(F)F)cc2[nH]1)c1csc(NC(=O)c2ccccc2OC(F)(F)F)n1 [Bischof-5] | 43 ± 15 | 50 ± 11 | 30 ± 16 | 64 ± 22 | 75 ± 30 |
| Cc1ccc2nc(NC(=O)CSc3nc4c(c(=O)n3-c3ccccc3)SCC4)sc2c1 [IWP-2] | 55 ± 6 | 42 ± 9 | 50 ± 9 | 36 ± 20 | 53 ± 27 |
| COc1ccccc1-n1c(SCC(=O)Nc2nc3ccc(C)cc3s2)nc2c(c1=O)SCC2 [IWP-4] | 49 ± 7 | 48 ± 10 | 61 ± 19 | 91 ± 60 | 96 ± 79 |
